Test results: BigSolDB 2.1

NC(=O)c1cnccn1
solubility (mole fraction)
Settings | 283.15 K | 293.15 K | 303.15 K | 313.15 K | 323.15 K | 333.15 K
in 1,4-dioxane | – | 0.0072 | 0.0107 | 0.0138 | 0.0202 | 0.0285
in acetone | 0.00244 | 0.00386 | 0.00583 | 0.00768 | 0.0116 | –
in methanol | 0.00268 | 0.00398 | 0.00586 | 0.0086 | 0.0122 | –
